The record followed here is patent US5290698A, “Streptoverticillium ferm P-10489 which produces antitumor agent BE-13793C” (Banyu Pharmaceutical Co., Ltd., priority 1989, dated 1994).

One data set deals with P388/A cells. In words: Growth inhibition of adriamycin-resistant P388/A cells. In kind it is cell-based. Particulars: Mus musculus, read-out: 50% inhibitory concentration (IC50) on growth of P388/A cells. Here is the method:
(§1) In vitro activity tests were performed for evaluating the inhibitory activities of the antitumor substance BE-13793C on mouse tumor cells. In the in vitro antitumor assay using P388 tumor cells, the test substance was first dissolved in dimethyl sulfoxide and the obtained solution was serially diluted with a cell culture medium containing 20% of dimethyl sulfoxide (20% v/v DMSO-RPMI-1640 medium). Then, 2 μl of the dilution was added to 200 μl of a cell culture medium (10% v/v fetal calf serum-RPMI-1640 medium) containing 2×10^4 or 3×10^4 tumor cells. Next, each mixture was incubated at 37° C. under 5% CO2 for 72 hours. The viable cells were then counted with a Coulter counter. The result was compared with the control data. […] The concentration (IC50) of the antitumor substance BE-13793C causing 50% inhibition on P388/S tumor cell growth was 0.7 μM, while that on P388/V cell growth was 0.7 μM.
Furthermore, the antitumor substance BE-13793C inhibited the growth of P388/A cells, which had acquired resistance to the anticancer agent adriamycin, and the 50% inhibitory concentration (IC50) thereof was 1.0 μM.

Another data set in a line: Solubility. In kind it is physicochemical.
Data set [1] can be described thus: Acidity/neutrality/basicity. In kind it is physicochemical.
A further data set has as its system P388/S tumor cells. In words: In vitro antitumor assay, growth inhibition of P388/S tumor cells (72 h, Coulter counter). In kind it is cell-based. Particulars: Mus musculus, 37° C., 5% CO2, 72 hours, read-out: concentration (IC50) causing 50% inhibition on P388/S tumor cell growth. Here is the method: as §1
(§2) The P388/S cells are commonly employed mouse leukemia cells while the P388/V cells are a strain of P388 leukemia cells which have acquired resistance to the anticancer agent vincristine.

In another data set the test system is P388/V cells. The experiment in a line: In vitro antitumor assay, growth inhibition of vincristine-resistant P388/V cells. In kind it is cell-based. The note with it: Mus musculus, 37° C., 5% CO2, 72 hours, read-out: concentration (IC50) causing 50% inhibition on P388/V cell growth. Here is the method: as §1, §2
A further data set relates to Ehrlich ascites cancer. In words: Effect on Ehrlich ascites cancer transplanted in mice (survival). In kind it is in vivo, mouse. The note with it: once a day 1st to 10th day; for MST (mean survival time): female ICR mice, control 13.1 day; for MST % T/C ((treated MST/control MST) × 100): ≥125 = marked antitumor effect. The source says:
In this assay, 10^6 (lethal dose) tumor cells per mouse were intraperitoneally administered. Then the test substance was serially diluted and intraperitoneally administered.
^1 Inoculum: 10^6 Ehrich ascites cancer cells, intraperitoneal.
^2 Host: Female ICR mice.
^3 Treatment schedule: BE13793C was intraperitoneally administered
once a day from the 1st to the 10th day.
^4 MST: Mean survival time (in days).
^5 % T/C: (Treated MST/control MST) × 100.
^6 Criteria: When % T/C ≥ 125, the test compound was considere
to produce a marked antitumor effect at the particular dose.

For the next data set, the system named is female ICR mice. The experiment in a line: Acute toxicity on female ICR mice. Particulars: 100 mg/kg i.p. once, on the 5th day. In kind it is in vivo, mouse.

pIC50: −log10 of the molar value.

Take `O=C1NC(=O)c2c1c1c3cccc(O)c3[nH]c1c1[nH]c3c(O)cccc3c21` [BE-13793C]: the results for the pIC50 with P388/A cells, with P388/S tumor cells and in the data set with P388/V cells were 6.00, 6.15 and 6.15, respectively. For the same molecule, the “solubility in dimethyl sulfoxide” value in “Solubility” (dimethyl sulfoxide) was “highly soluble”. The solubility in methanol entry in “Solubility” (methanol) is “soluble”. The solubility in tetrahydrofuran entry in “Solubility” (tetrahydrofuran) is given as “highly soluble”. For the same molecule, the solubility in water entry in “Solubility” (water) was “hardly soluble”. Also, the Acidity/neutrality/basicity entry in data set [1] is “acidic”. Besides, the “MST (mean survival time)” value in the data set with Ehrlich ascites cancer (8 mg/kg/injection i.p.) is 16.0 days; in the data set on Ehrlich ascites cancer (20 mg/kg/injection i.p.) it was 26.4 days; in the data set with Ehrlich ascites cancer (50 mg/kg/injection i.p.), 28.6 days. In addition, the “MST % T/C ((treated MST/control MST) × 100)” value with Ehrlich ascites cancer (8 mg/kg/injection i.p.) was determined as 122%; with Ehrlich ascites cancer (20 mg/kg/injection i.p.), 202%; in the data set with Ehrlich ascites cancer (50 mg/kg/injection i.p.), 218%. In addition, the “death (acute toxicity)” value with female ICR mice is on record as “no death was found”.
